Measurements reported in PubChem BioAssay (NCI).
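Dose response: 5 concentrations. Exposure: 48 h. Format: 96-well plates. Endpoint: linear interpolation; highest concentration if not reached. GI50: concentration for 50% inhibition of growth. TGI: concentration producing complete growth inhibition.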

Tests used:
Test in all cases: growth of human tumour cells (NCI), 48 h
MDA-MB-231 breast = tested on: MDA-MB-231 breast
IGROV1 ovarian = tested on: IGROV1 ovarian
MOLT-4 leukemia = tested on: MOLT-4 leukemia
KM12 colon = tested on: KM12 colon
HOP-62 NSCLC = tested on: HOP-62 NSCLC
DU-145 prostate = tested on: DU-145 prostate
SK-MEL-2 melanoma = tested on: SK-MEL-2 melanoma
TK-10 renal = tested on: TK-10 renal
SF-295 CNS = tested on: SF-295 CNS
RXF 393 renal = tested on: RXF 393 renal
OVCAR-4 ovarian = tested on: OVCAR-4 ovarian
NCI/ADR-RES ovarian = tested on: NCI/ADR-RES ovarian
UACC-257 melanoma = tested on: UACC-257 melanoma
A549 NSCLC = tested on: A549 NSCLC
PC-3 prostate = tested on: PC-3 prostate
MALME-3M melanoma = tested on: MALME-3M melanoma
NCI-H23 lung = tested on: NCI-H23 lung
NCI-H460 lung = tested on: NCI-H460 lung
OVCAR-5 ovarian = tested on: OVCAR-5 ovarian
EKVX NSCLC = tested on: EKVX NSCLC
UO-31 renal = tested on: UO-31 renal
M14 melanoma = tested on: M14 melanoma
HL-60(TB) leukemia = tested on: HL-60(TB) leukemia
SN12C renal = tested on: SN12C renal
U251 CNS = tested on: U251 CNS
SK-MEL-28 melanoma = tested on: SK-MEL-28 melanoma
MCF7 breast = tested on: MCF7 breast
HCT-15 colon = tested on: HCT-15 colon
A498 renal = tested on: A498 renal
SK-OV-3 ovarian = tested on: SK-OV-3 ovarian
SF-268 CNS = tested on: SF-268 CNS
NCI-H522 lung = tested on: NCI-H522 lung
UACC-62 melanoma = tested on: UACC-62 melanoma
HT29 colon = tested on: HT29 colon
ACHN renal = tested on: ACHN renal
RPMI-8226 leukemia = tested on: RPMI-8226 leukemia
SNB-75 CNS = tested on: SNB-75 CNS
SW-620 colon = tested on: SW-620 colon
CCRF-CEM leukemia = tested on: CCRF-CEM leukemia
NCI-H226 lung = tested on: NCI-H226 lung
HCT-116 colon = tested on: HCT-116 colon
HCC-2998 colon = tested on: HCC-2998 colon
786-0 renal = tested on: 786-0 renal
SK-MEL-5 melanoma = tested on: SK-MEL-5 melanoma
OVCAR-8 ovarian = tested on: OVCAR-8 ovarian
HS 578T breast = tested on: HS 578T breast
SF-539 CNS = tested on: SF-539 CNS
LOX IMVI melanoma = tested on: LOX IMVI melanoma
OVCAR-3 ovarian = tested on: OVCAR-3 ovarian
K-562 leukemia = tested on: K-562 leukemia
T-47D breast = tested on: T-47D breast
SNB-19 CNS = tested on: SNB-19 CNS
HOP-92 NSCLC = tested on: HOP-92 NSCLC
COLO 205 colon = tested on: COLO 205 colon

CCOC(=O)c1cc2c(n1Cc1cccc(OC)c1)-c1oncc1CC2 gave a GI50 (MDA-MB-231 breast) of 4.87 µM, a TGI (MDA-MB-231 breast) of over 100 µM and a GI50 (IGROV1 ovarian) of 0.78 µM. For the same compound, the TGI (IGROV1 ovarian) was over 100 µM, the GI50 (MOLT-4 leukemia) was 1.16 µM and the TGI (MOLT-4 leukemia) was over 100 µM. The GI50 (KM12 colon) was 0.55 µM, the TGI (KM12 colon) was over 100 µM and the GI50 (HOP-62 NSCLC) was 0.86 µM. The TGI (HOP-62 NSCLC) was over 100 µM, the GI50 (DU-145 prostate) was 2.27 µM and the TGI (DU-145 prostate) was over 100 µM. It also gave a GI50 (SK-MEL-2 melanoma) of 1.11 µM, a TGI (SK-MEL-2 melanoma) of over 100 µM and a GI50 (TK-10 renal) of 7.51 µM. For the same compound, the TGI (TK-10 renal) was over 100 µM, the GI50 (SF-295 CNS) was 0.433 µM and the TGI (SF-295 CNS) was 49.7 µM. The GI50 (RXF 393 renal) was 1.72 µM, the TGI (RXF 393 renal) was 35.9 µM and the GI50 (OVCAR-4 ovarian) was 9.6 µM. It also gave a TGI (OVCAR-4 ovarian) of over 100 µM, a GI50 (NCI/ADR-RES ovarian) of 0.302 µM and a TGI (NCI/ADR-RES ovarian) of 5.14 µM. It also gave a GI50 (UACC-257 melanoma) of 39.6 µM, a TGI (UACC-257 melanoma) of over 100 µM and a GI50 (A549 NSCLC) of 9.42 µM. The TGI (A549 NSCLC) was over 100 µM, the GI50 (PC-3 prostate) was 5.19 µM and the TGI (PC-3 prostate) was over 100 µM. For the same compound, the GI50 (MALME-3M melanoma) was 0.571 µM, the TGI (MALME-3M melanoma) was 76.5 µM and the GI50 (NCI-H23 lung) was 3.42 µM. The TGI (NCI-H23 lung) was over 100 µM, the GI50 (NCI-H460 lung) was 0.511 µM and the TGI (NCI-H460 lung) was over 100 µM. For the same compound, the GI50 (OVCAR-5 ovarian) was 17.9 µM, the TGI (OVCAR-5 ovarian) was over 100 µM and the GI50 (EKVX NSCLC) was 9.1 µM. For the same compound, the TGI (EKVX NSCLC) was over 100 µM, the GI50 (UO-31 renal) was 1.91 µM and the TGI (UO-31 renal) was 78.5 µM. The GI50 (M14 melanoma) was 0.432 µM, the TGI (M14 melanoma) was 35.3 µM and the GI50 (HL-60(TB) leukemia) was 0.297 µM. For the same compound, the TGI (HL-60(TB) leukemia) was 1.63 µM, the GI50 (SN12C renal) was 13.5 µM and the TGI (SN12C renal) was over 100 µM. The GI50 (U251 CNS) was 0.909 µM, the TGI (U251 CNS) was over 100 µM and the GI50 (SK-MEL-28 melanoma) was 0.97 µM. For the same compound, the TGI (SK-MEL-28 melanoma) was over 100 µM, the GI50 (MCF7 breast) was 0.487 µM and the TGI (MCF7 breast) was over 100 µM. It also gave a GI50 (HCT-15 colon) of 0.521 µM, a TGI (HCT-15 colon) of over 100 µM and a GI50 (A498 renal) of 0.156 µM. For the same compound, the TGI (A498 renal) was 3.39 µM, the GI50 (SK-OV-3 ovarian) was 2.42 µM and the TGI (SK-OV-3 ovarian) was over 100 µM. It also gave a GI50 (SF-268 CNS) of 18 µM, a TGI (SF-268 CNS) of over 100 µM and a GI50 (NCI-H522 lung) of 0.237 µM. The TGI (NCI-H522 lung) was 1.42 µM, the GI50 (UACC-62 melanoma) was 0.541 µM and the TGI (UACC-62 melanoma) was over 100 µM. For the same compound, the GI50 (HT29 colon) was 0.37 µM, the TGI (HT29 colon) was 15.8 µM and the GI50 (ACHN renal) was 2.66 µM. The TGI (ACHN renal) was over 100 µM, the GI50 (RPMI-8226 leukemia) was 3.52 µM and the TGI (RPMI-8226 leukemia) was over 100 µM. The GI50 (SNB-75 CNS) was 0.399 µM, the TGI (SNB-75 CNS) was 3.03 µM and the GI50 (SW-620 colon) was 0.433 µM. The TGI (SW-620 colon) was over 100 µM, the GI50 (CCRF-CEM leukemia) was 1.43 µM and the TGI (CCRF-CEM leukemia) was over 100 µM. It also gave a GI50 (NCI-H226 lung) of 7.46 µM, a TGI (NCI-H226 lung) of over 100 µM and a GI50 (HCT-116 colon) of 0.47 µM. The TGI (HCT-116 colon) was 19.9 µM, the GI50 (HCC-2998 colon) was 1.94 µM and the TGI (HCC-2998 colon) was 29.6 µM. For the same compound, the GI50 (786-0 renal) was 4.29 µM, the TGI (786-0 renal) was over 100 µM and the GI50 (SK-MEL-5 melanoma) was 0.595 µM. For the same compound, the TGI (SK-MEL-5 melanoma) was 11.3 µM, the GI50 (OVCAR-8 ovarian) was 10.3 µM and the TGI (OVCAR-8 ovarian) was over 100 µM. The GI50 (HS 578T breast) was 0.742 µM, the TGI (HS 578T breast) was 8.16 µM and the GI50 (SF-539 CNS) was 1.16 µM. It also gave a TGI (SF-539 CNS) of 7.35 µM, a GI50 (LOX IMVI melanoma) of 0.794 µM and a TGI (LOX IMVI melanoma) of over 100 µM. For the same compound, the GI50 (OVCAR-3 ovarian) was 0.38 µM, the TGI (OVCAR-3 ovarian) was 2.66 µM and the GI50 (K-562 leukemia) was 0.343 µM. For the same compound, the TGI (K-562 leukemia) was over 100 µM, the GI50 (T-47D breast) was 0.61 µM and the TGI (T-47D breast) was 97.2 µM. It also gave a GI50 (SNB-19 CNS) of 4.72 µM, a TGI (SNB-19 CNS) of over 100 µM and a GI50 (HOP-92 NSCLC) of 10.5 µM. The TGI (HOP-92 NSCLC) was over 100 µM, the GI50 (COLO 205 colon) was 0.508 µM and the TGI (COLO 205 colon) was 3.99 µM.
